In general, EC50 refers to the concentration giving half of the maximal effect. What is called inhibition is the share of the control response that was lost under treatment.

Data on 28 molecules can be found in article PMC9877316, “Identification of a novel P2X7 antagonist using structure-based virtual screening” (Frontiers in Pharmacology, 2023).

One test has as its target T1, rat P2X7 (Rattus norvegicus, UniProt Q64663).
T1 construct: expressed in transfected cells; host or cells: HEK-293 cells stably expressing rat P2X7-GFP (patch clamp)
T1 sequence (Q64663 1-595): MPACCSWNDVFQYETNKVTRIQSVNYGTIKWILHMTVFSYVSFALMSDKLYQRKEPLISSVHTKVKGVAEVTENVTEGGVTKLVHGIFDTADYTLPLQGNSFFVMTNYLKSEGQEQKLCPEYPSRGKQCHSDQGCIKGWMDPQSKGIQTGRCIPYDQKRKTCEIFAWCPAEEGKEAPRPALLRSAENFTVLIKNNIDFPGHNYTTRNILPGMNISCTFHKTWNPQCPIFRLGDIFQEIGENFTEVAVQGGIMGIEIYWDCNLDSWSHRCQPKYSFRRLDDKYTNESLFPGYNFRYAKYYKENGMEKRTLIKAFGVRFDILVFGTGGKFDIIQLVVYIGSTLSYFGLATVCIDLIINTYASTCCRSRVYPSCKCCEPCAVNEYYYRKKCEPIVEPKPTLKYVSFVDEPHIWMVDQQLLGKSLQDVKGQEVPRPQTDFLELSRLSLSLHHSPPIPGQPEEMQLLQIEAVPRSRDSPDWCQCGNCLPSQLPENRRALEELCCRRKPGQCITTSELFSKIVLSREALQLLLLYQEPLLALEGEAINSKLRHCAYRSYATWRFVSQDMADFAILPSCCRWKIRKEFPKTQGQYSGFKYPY
Put plainly: ATP/BzATP-induced YoPro-1 dye uptake assay, rat P2X7. Format: cell-based. Conditions: for inhibition at 30 µM: approx. % inhibition at 30 μM compound, 300 µM ATP, rat P2X7-GFP, read-out: % Inhibition at rP2X7. The procedure: (§1) 1321N1 astrocytoma cells and HEK-293 cells were cultured (at 37°C, 5% CO2) in Dulbecco’s modified Eagle’s medium (DMEM/F-12 with Glutamax) supplemented with 10% foetal bovine serum (FBS) and 200 unit/ml of penicillin and streptomycin antibiotics (Fisher Scientific). For stable cell line generation, cells were transfected using FuGene HD Transfection Reagent (Promega) according to the manufacturer’s protocol with plasmids encoding either human P2X4 with a C-terminal (His)10 tag ([Young et al., 2008]), human P2X7 with a C-terminal EYMPME tag (kindly provided by R.A. North) or rat P2X7 C-terminally tagged with a GFP-(His)8 tag, generated by PCR amplification of the coding sequence for rat P2X7 from a pcDNA-based expression vector ([Young et al., 2007]), adding XhoI and EcoRI sites at the 5′- and 3′- ends respectively, followed by restriction digestion and ligation into a zebrafish P2X4-GFP expression vector based on pEGFP-C1 (kindly provided by Eric Gouaux; [Kawate and Gouaux, 2006]) to replace the zebrafish P2X4 coding region with rP2X7. Transfected clones were grown in DMEM/F-12 with Glutamax medium supplemented with G-418 (Geneticin®, Fisher Scientific), 600 μg/ml and 150 μg/ml during selection and maintenance respectively. […] HEK-293 cells stably expressing human P2X7 ([Adinolfi et al., 2010]) were a kind gift from Elena Adinolfi.
(§2) Cells were plated as for the calcium influx assay (Section 2.4). Culture medium was replaced with low divalent cation containing extracellular solution (ECS-LD; 147 mM NaCl, 10 mM HEPES, 13 mM Glucose, .2 mM CaCl2, 2 mM KCl. pH = 7.4 in MilliQ water) and 5 μM Yopro-1. […] The baseline was measured with a BMG Clariostar instrument for 5–10 cycles, followed by addition of ATP (or BzATP) and recording for at least 30 further cycles (approx. 1 min per data point). The collected responses were normalized to the first data-point recorded after ATP addition. The initial gradient of the dye uptake curve was used to calculate the response to ATP.
In order to confirm GP-25 as a competitive (orthosteric) antagonist, BzATP concentration-response curves (ranging between 300 μM and .03 µM) were constructed for rat P2X7-GFP in the YoPro-1 uptake assay in the presence of increasing concentrations of GP-25 (Figure 3A).

The target of another test is T2, human P2X7 (Homo sapiens, UniProt Q99572).
T2 construct: expressed in transfected cells; host or cells: 1321N1 astrocytoma cells (compounds 1-17); HEK-293 cells stably expressing human P2X7 (gift of E. Adinolfi)
T2 sequence (Q99572 1-595): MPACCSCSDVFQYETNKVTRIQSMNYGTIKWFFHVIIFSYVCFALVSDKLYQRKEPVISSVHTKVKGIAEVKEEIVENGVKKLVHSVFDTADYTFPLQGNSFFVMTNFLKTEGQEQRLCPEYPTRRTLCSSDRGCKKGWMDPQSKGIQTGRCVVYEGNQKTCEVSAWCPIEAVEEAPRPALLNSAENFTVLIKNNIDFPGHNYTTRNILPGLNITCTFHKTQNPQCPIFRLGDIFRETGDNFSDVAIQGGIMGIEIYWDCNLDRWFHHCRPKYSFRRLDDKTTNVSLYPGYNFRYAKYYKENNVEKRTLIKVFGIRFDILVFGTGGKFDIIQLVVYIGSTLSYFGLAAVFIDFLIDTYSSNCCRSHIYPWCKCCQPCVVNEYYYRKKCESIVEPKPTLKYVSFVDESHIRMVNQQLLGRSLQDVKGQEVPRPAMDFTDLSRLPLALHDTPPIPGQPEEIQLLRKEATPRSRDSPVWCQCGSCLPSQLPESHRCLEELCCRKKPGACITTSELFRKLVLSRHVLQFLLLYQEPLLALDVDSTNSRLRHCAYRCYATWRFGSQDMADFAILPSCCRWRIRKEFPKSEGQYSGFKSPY
In words: ATP-induced YoPro-1 dye uptake assay, human P2X7. Format: cell-based. Particulars: for reduction in ATP-induced dye uptake at human P2X7: 30 µM compound, 300 μM ATP. The procedure:
as §1, §2
The antagonist activity of the 17 compounds (applied at 10 µM) was assayed initially on 1321N1 astrocytoma cells stably expressing human P2X4 receptors by measuring the ATP-induced (applied at 1.2 µM) increase in Fluo-4 fluorescence due to calcium influx via P2X4, using 2 µM BX430 as a positive control (Figure 1A). […] The ATP-induced rate of uptake of YoPro-1 dye was measured upon application of at 300 µM ATP, using .1 µM A740003 as a positive control (Figure 1B).
A small library of 16 commercially available compounds was selected according to the presence of the same scaffold as GP-25, (70% similarity, Tanimoto index) and/or presence of at least one functional group we hypothesized could contribute to GP-25 activity (e.g. carboxylic acid, halogen substituent to the aromatic ring, ester, etc.) (Compounds 18–33; Table 1). […] Although the number of compounds tested was limited by their availability via a commercial source, the numerous ‘hits’ allowed for a basic structure-relationship (SAR) analysis.

Where [1] appears, read: agonist concentration-response, YoPro-1 uptake.
[2] abbreviates: P2X7, approx. % inhibition at 30 μM compound, 300 µM ATP, YoPro-1 uptake, 1321N1 (1-17) or HEK (18-33) cells, read-out: % Inhibition at hP2X7.
[3] abbreviates: P2X7, 30 µM compound, 300 µM ATP, YoPro-1, read-out: inhibition of response at human P2X7.

Read-outs that look alike come from different tables or passages of the source.

With `Nc1ncnc2c1ncn2[C@@H]1O[C@H](COP(=O)(O)OP(=O)(O)OP(=O)(O)O)[C@@H](O)[C@H]1O` [ATP, reference compound], the values for the EC50 at rat P2X7 (setting [1]) and at human P2X7 (setting [1]) were 138 µM and 184 µM, respectively. On to `O=C(Nc1cc(S(=O)(=O)O)cc2cc(S(=O)(=O)O)cc(O)c12)c1ccccc1` [Compound 1], for which the inhibition at 30 µM at human P2X7 (setting [2]) amounted to 41%. `O=C(O)c1ccccc1NS(=O)(=O)c1ccc2c(c1)C(=O)c1ccccc1C2=O` [Compound 2]: the inhibition at 30 µM on human P2X7 (setting [2]) was found to be 38%. On to `Nc1nc(SCC(=O)NCCO)nc2sc3c(c12)CCCC3` [Compound 3], for which, on human P2X7 (setting [2]), the inhibition at 30 µM was below 0%. Same read-out and setting: under `Cc1ccc(C(=O)C2=C(O)C(=O)N(CC3CCCO3)C2c2cccc(Oc3ccccc3)c2)o1` (stereo not shown) [Compound 4] stands below 10%. Take `Cc1ccc(N2C(S)=C(C#N)C(=O)NC2c2cccs2)cc1` (stereo not shown) [Compound 5]: the inhibition at 30 µM at human P2X7 (setting [2]) was below 0%. Turning to `CC(=O)c1ccc(N/N=C(\C#N)C(=O)NCc2ccccc2)cc1` [Compound 6], at human P2X7 (setting [2]), the inhibition at 30 µM was below 10%. For `O=C1NC(=O)C(CCc2ccncc2)(c2ccccc2)C(=O)N1` [Compound 8], the inhibition at 30 µM on human P2X7 (setting [2]) is below 0%. For the molecule `CCOC(=O)CN1C(=O)S/C(=C/c2ccc(-c3ccc(C(=O)O)c(Cl)c3)o2)C1=O` [Compound 10], the “% Inhibition at hP2X7” value on human P2X7 (approx. % inhibition at 30 μM compound, 300 µM ATP, YoPro-1 uptake, 1321N1 (1-17) or HEK (18-33) cells) was “— (for compound displaying increased responses vs. control)”.

Consider `C=CCN1C(=O)N/C(=C/c2ccc(-c3ccc(C(=O)O)cc3C)o2)C1=O` [Compound 11], for which the inhibition at 30 µM on human P2X7 (setting [2]) was determined as 25%. Regarding `NC(=O)CN1C(=O)C(O)(CC(=O)c2cccc(N)c2)c2ccccc21` (stereo not shown) [Compound 12], on human P2X7 (setting [2]), the inhibition at 30 µM came out at 12%.

In the case of `CC1(C)CC(=O)C2=C(C1)N(CC(=O)O)C1=C(C(=O)CC(C)(C)C1)C2c1ccc(OCc2ccccc2)cc1` [Compound 13], the values for the inhibition at 30 µM on human P2X7 (setting [3]) and on human P2X7 (setting [2]) were at most 25% and 29%, respectively. On the same counts, the results for `COc1ccc(C2C3=C(CCCC3=O)N(CC(=O)O)C3=C2C(=O)CCC3)cc1` [Compound 14] are at most 25% and below 0%. Consider `O=C(O)CCCC(=O)Nc1ccc(CN2CCOCC2)cc1` [Compound 15], for which the inhibition at 30 µM at human P2X7 (setting [2]) stood at 11%. Take `O=C(O)CSc1nc(SCC(=O)O)c2c3c(sc2n1)CCCC3` [Compound 16]: the inhibition at 30 µM on human P2X7 (setting [2]) is below 10%. Still for that read-out and setting: under `O=C(NNC(=S)CC(=O)c1cccs1)c1ccc(O)cc1` [Compound 17] stands below 10%. In the case of `CC1(C)CC(=O)C2=C(C1)NC1=C(C(=O)CC(C)(C)C1)C2c1ccccc1OCC(=O)O` [Compound 18], the inhibition at 30 µM on rat P2X7 (YoPro-1 uptake) is below 0%; at human P2X7 (setting [3]) it was at most 25%; at human P2X7 (setting [2]), below 0%. Take `CCOC(=O)C1=C(C)NC2=C(C(=O)c3ccccc32)C1c1cc(Br)ccc1OCC` (stereo not shown) [Compound 19]: the inhibition at 30 µM was 13% at rat P2X7 (YoPro-1 uptake) and below 0% at human P2X7 (setting [2]). For the same molecule, the “reduction in ATP-induced dye uptake at human P2X7” value (“reduction” below) at human P2X7 is “completely abolished the activity”.

As for `COC(=O)C1=C(C)NC2=C(C(=O)c3ccccc32)C1c1ccc(-c2ccccc2[N+](=O)[O-])o1` (stereo not shown) [Compound 23], the inhibition at 30 µM at rat P2X7 (YoPro-1 uptake) is below 0%; at human P2X7 (setting [2]), 30%. The “reduction” value at human P2X7 is reported as “statistically significant reduction”. For the molecule `CCOC(=O)C1=C(C)NC2=C(C(=O)c3ccccc32)C1c1cc(Br)c(OCc2ccc(F)cc2)c(OC)c1` (stereo not shown) [Compound 24], the values for the inhibition at 30 µM on rat P2X7 (YoPro-1 uptake) and on human P2X7 (setting [2]) were 16% and 12%, respectively. With `CN1C2=C(C(=O)CCC2)C(c2cc(Cl)ccc2OCC(=O)O)C2=C1CCCC2=O` [Compound 25], the inhibition at 30 µM was below 0% at rat P2X7 (YoPro-1 uptake), at most 25% on human P2X7 (setting [3]) and 20% at human P2X7 (setting [2]).

On to `O=C(O)COc1ccc(Br)cc1C1C2=C(CCCC2=O)NC2=C1C(=O)CCC2` [Compound 26], for which the values for the inhibition at 30 µM on rat P2X7 (YoPro-1 uptake), at human P2X7 (setting [3]) and at human P2X7 (setting [2]) were below 0%, at most 25% and 22%, respectively. Consider `O=C(O)COc1ccc(Cl)cc1C1C2=C(CCCC2=O)NC2=C1C(=O)CCC2` [Compound 27], for which the inhibition at 30 µM on rat P2X7 (YoPro-1 uptake) is below 0%; on human P2X7 (setting [3]) it was at most 25%; at human P2X7 (setting [2]), 16%.

With `CC1(C)CC(=O)C2=C(C1)NC1=C(C(=O)c3ccccc31)C2c1cccnc1` (stereo not shown) [Compound 28], the inhibition at 30 µM was below 0% at rat P2X7 (YoPro-1 uptake) and 32% on human P2X7 (setting [2]). The “reduction” value at human P2X7 is reported as “statistically significant reduction”. For the molecule `CCSc1nnc2c(n1)OC(c1cc(Br)ccc1OCC(=O)O)Nc1ccccc1-2` (stereo not shown) [Compound 29], the inhibition at 30 µM was below 0% on rat P2X7 (YoPro-1 uptake) and 20% at human P2X7 (setting [2]).

`CC1(C)CC(=O)C2=C(C1)NC1=C(C(=O)c3ccccc31)C2c1cccc(O)c1` (stereo not shown) [Compound 30]: the inhibition at 30 µM is below 0% on rat P2X7 (YoPro-1 uptake) and 27% on human P2X7 (setting [2]). Take `COC(=O)C1=C(C)NC2=C(C(=O)c3ccccc32)C1c1cc(OC)c(OC)c(OC)c1` (stereo not shown) [Compound 31]: the inhibition at 30 µM on rat P2X7 (YoPro-1 uptake) was below 10%; on human P2X7 (setting [2]), 29%. Consider `CCOC(=O)C1=C(C)N(C)C2=C(C(=O)c3ccccc32)C1c1cc(OC)c(OC)c(OC)c1` (stereo not shown) [Compound 32], for which, on rat P2X7 (30 µM compound, 300 μM ATP), the “antagonist activity at rat P2X7” value was “no activity”. For the same molecule, the inhibition at 30 µM on rat P2X7 (YoPro-1 uptake) amounted to 19%; on human P2X7 (setting [2]), 55%. In addition, the “reduction” value on human P2X7 is recorded as “statistically significant reduction”.
